Reference: patent US10925855B2, “Compositions comprising water dispersible nanoparticles of a retinoid compound” (GALDERMA RESEARCH & DEVELOPMENT, priority 2015, dated 2021)
Converted amounts (≈) assume the structure as drawn.

Key:
Assay type in all cases: physicochemical
Precipitation test = conditions: every tested organic solvent at 1 mg/mL concentration
Experimental: 1 mg/ml solutions of compound A were prepared in each appropriate solvent.

[1] = Redispersibility in water; conditions: addition of water at room temperature
[2] = Solvent screening (solubility of compound A); conditions: for solubility: thermodynamic from solid, Sonication
Experimental: 10-20 mg of 3″-tert-butyl-4′-(2-hydroxyethoxy)-4″-pyrrolidin-1-yl[1,1′;3′,1″]-terphenyl-4-carboxylic acid (hereinafter “compound A”) was placed into a 30 ml vial. 200 μl of the selected solvent was added and the vial was stirred by magnetic stirring. • If the compound A was not dissolved, the vial was placed into ultrasonic bath with mild heating. • If the compound A was still not dissolved, further 200 μl of the solvent was added to the vial and the magnetic stirring and ultrasonication were repeated.
The whole procedure (addition of the solvent, stirring, ultrasonication, heating) was repeated stepwise until every compound A particles was dissolved and a clear, translucent liquid was obtained.

[3] = Stabilizer screening (colloid stability after precipitation); conditions: Compound A 1.0 mg
Experimental: If the colloid solution was stable over 2 hours (no aggregation, sedimentation, crystal forming), and no aggregation occurred, the sample was lyophilized. • If precipitation occurred, however the colloid solution was not stable over the whole solid formulation procedure, other stabilizers were tested. Results

precipitation on addition of anti-solvent (Precipitation test): precipitated
Redispersibility [1]: not wetted by water
solubility profile (in words) ([2]; acetone): slightly soluble
solubility profile (in words) ([2]; acetonitrile): very slightly soluble
solubility profile (in words) ([2]; ethanol): slightly soluble
solubility profile (in words) ([2]; isopropanol): slightly soluble
solubility profile (in words) ([2]; methanol): slightly soluble
solubility ([2]; organic solvent or mixture, Acetone, RT): 3000 µg/mL (≈ 6.53 mM)
solubility ([2]; organic solvent or mixture, Acetonitrile, RT): 400 µg/mL (≈ 0.87 mM)
solubility ([2]; organic solvent or mixture, Ethanol, RT): 4900 µg/mL (≈ 10.7 mM)
solubility ([2]; organic solvent or mixture, Isopropanol, RT): 3000 µg/mL (≈ 6.53 mM)
solubility ([2]; organic solvent or mixture, Methanol, RT): 1700 µg/mL (≈ 3.7 mM)
solubility ([2]; organic solvent or mixture, Pyridine, RT): 34500 µg/mL (≈ 75.1 mM)
solubility ([2]; organic solvent or mixture, Tetrahydrofuran, RT): 30500 µg/mL (≈ 66.4 mM)
solubility profile (in words) ([2]; pyridine): soluble
solubility profile (in words) ([2]; tetrahydrofuran): soluble
solubility ([2]; Water, T = 45° C.): < 50 µg/mL
solubility profile (in words) ([2]; water): practically insoluble
Observation ([3]; 2 mg Klucel EF, 1 mL EtOH, 4 mL water): Aggregated
Observation ([3]; 2 mg Klucel EF, 1 mL IPA, 4 mL water): Aggregated
Observation ([3]; 2 mg Klucel EF, 1 mL MeOH, 4 mL water): Aggregated
Observation ([3]; 2 mg Klucel EF, 1 mL THF, 4 mL water): Aggregated
Observation ([3]; 2 mg Klucel LF, 1 mL EtOH, 4 mL water): Aggregated
Observation ([3]; 2 mg Klucel LF, 1 mL IPA, 4 mL water): Aggregated
Observation ([3]; 2 mg Klucel LF, 1 mL MeOH, 4 mL water): Aggregated
Observation ([3]; 2 mg Klucel LF, 1 mL THF, 4 mL water): Aggregated
Observation ([3]; 2 mg Lutrol F 127, 1 mL ACE, 4 mL water): Aggregated immediately
Observation ([3]; 2 mg Lutrol F 127, 1 mL EtOH, 4 mL water): Aggregated
Observation ([3]; 2 mg Lutrol F 127, 1 mL MeOH, 4 mL water): Cloudy immediately
Observation ([3]; 2 mg Lutrol F 127, 1 mL THF, 5 mL water): Aggregated
Observation: Aggregated within ([3]; 2 mg Luviskol VA64, 1 mL ACE, 4 mL water): Aggregated within 5 min
Observation: Colloid, Stable for ([3]; 2 mg Luviskol VA64, 1 mL EtOH, 4 mL water): Colloid, Stable for 30 min
Observation ([3]; 2 mg Luviskol VA64, 1 mL EtOH, 7 mL 0.05 mg/mL BAC solution): Aggregated immediately
Observation ([3]; 2 mg Luviskol VA64, 1 mL EtOH, 7 mL 0.05 mg/mL DSS solution): Aggregated immediately
Observation ([3]; 2 mg Luviskol VA64, 1 mL EtOH, 7 mL 0.05 mg/mL Mannitol solution): Aggregated immediately
Observation ([3]; 2 mg Luviskol VA64, 1 mL EtOH, 7 mL 0.05 mg/mL NaOAc solution): Aggregated immediately
Observation ([3]; 2 mg Luviskol VA64, 1 mL EtOH, 7 mL 0.05 mg/mL SDS solution): Aggregated immediately
Observation ([3]; 2 mg Luviskol VA64, 1 mL EtOH, 7 mL 0.05 mg/mL citric acid solution): Aggregated immediately
Observation ([3]; 2 mg Luviskol VA64, 1 mL EtOH, 7 mL 0.5 mg/mL BAC solution): Aggregated immediately
Observation: Aggregated within ([3]; 2 mg Luviskol VA64, 1 mL EtOH, 7 mL 0.5 mg/mL DSS solution): Aggregated within 1 hour
Observation ([3]; 2 mg Luviskol VA64, 1 mL EtOH, 7 mL 0.5 mg/mL Mannitol solution): Aggregated immediately
Observation: Stable for ([3]; 2 mg Luviskol VA64, 1 mL EtOH, 7 mL 0.5 mg/mL NaOAc solution, at RT): Stable for 1 day at RT
Observation: Aggregated within ([3]; 2 mg Luviskol VA64, 1 mL EtOH, 7 mL 0.5 mg/mL SDS solution): Aggregated within 1 hour
Observation ([3]; 2 mg Luviskol VA64, 1 mL EtOH, 7 mL 0.5 mg/mL citric acid solution): Aggregated immediately
Observation ([3]; 2 mg Luviskol VA64, 1 mL IPA, 4 mL water): Aggregated
Observation: Aggregated after ([3]; 2 mg Luviskol VA64, 1 mL MeOH, 4 mL water): Aggregated after 25 min
Observation ([3]; 2 mg Luviskol VA64, 1 mL THF, 4 mL water): Aggregated
Observation ([3]; 2 mg PEG2000, 1 mL ACE, 4 mL water): Aggregated immediately
Observation ([3]; 2 mg PEG2000, 1 mL EtOH, 4 mL water): Aggregated
Observation ([3]; 2 mg PEG2000, 1 mL IPA, 4 mL water): Aggregated
Observation ([3]; 2 mg PEG2000, 1 mL MeOH, 4 mL water): Aggregated
Observation ([3]; 2 mg PEG2000, 1 mL THF, 4 mL water): Aggregated
Observation ([3]; 2 mg PEG6000, 1 mL ACE, 4 mL water): Aggregated immediately
Observation ([3]; 2 mg PEG6000, 1 mL EtOH, 4 mL water): Aggregated
Observation ([3]; 2 mg PEG6000, 1 mL MeOH, 4 mL water): Aggregated
Observation: Aggregated within ([3]; 2 mg PEOX50, 1 mL ACE, 4 mL water): Aggregated within 5 min
Observation: Colloid, Stable for ([3]; 2 mg PEOX50, 1 mL EtOH, 4 mL water): Colloid, Stable for 10 min
Observation: Aggregated within ([3]; 2 mg PEOX50, 1 mL EtOH, 7 mL 0.5 mg/mL DSS solution): Aggregated within 1 hour
Observation: Aggregated within ([3]; 2 mg PEOX50, 1 mL EtOH, 7 mL 0.5 mg/mL NaOAc solution): Aggregated within 1 hour
Observation: Aggregated within ([3]; 2 mg PEOX50, 1 mL EtOH, 7 mL 0.5 mg/mL SDS solution): Aggregated within 1 hour
Observation ([3]; 2 mg PEOX50, 1 mL EtOH, 7 mL 0.5 mg/mL citric acid solution): Aggregated immediately
Observation ([3]; 2 mg PEOX50, 1 mL IPA, 4 mL water): Aggregated
Observation ([3]; 2 mg PEOX50, 1 mL MeOH, 4 mL water): Aggregated
Observation ([3]; 2 mg PEOX50, 1 mL THF, 4 mL water): Aggregated
Observation: Aggregated within ([3]; 2 mg PEOX500, 1 mL ACE, 4 mL water): Aggregated within 5 min
Observation ([3]; 2 mg PEOX500, 1 mL EtOH, 4 mL water): Aggregated
Observation ([3]; 2 mg PEOX500, 1 mL IPA, 4 mL water): Aggregated
Observation ([3]; 2 mg PEOX500, 1 mL MeOH, 4 mL water): Aggregated
Observation ([3]; 2 mg PEOX500, 1 mL THF, 4 mL water): Aggregated
Observation ([3]; 2 mg PMAMVE, 1 mL EtOH, 4 mL water): Aggregated
Observation ([3]; 2 mg PMAMVE, 1 mL MeOH, 4 mL water): Aggregated
Observation: Colloid, Stable for ([3]; 2 mg PVP10, 1 mL EtOH, 4 mL water): Colloid, Stable for 30 min
Observation ([3]; 2 mg PVP10, 1 mL EtOH, 7 mL 0.05 mg/mL BAC solution): Aggregated immediately
Observation ([3]; 2 mg PVP10, 1 mL EtOH, 7 mL 0.05 mg/mL DSS solution): Aggregated immediately
Observation ([3]; 2 mg PVP10, 1 mL EtOH, 7 mL 0.05 mg/mL Mannitol solution): Aggregated immediately
Observation ([3]; 2 mg PVP10, 1 mL EtOH, 7 mL 0.05 mg/mL NaOAc solution): Aggregated immediately
SMILES: CC(C)(C)c1cc(-c2cc(-c3ccc(C(=O)O)cc3)ccc2OCCO)ccc1N1CCCC1 [Compound A, 3″-tert-butyl-4′-(2-hydroxyethoxy)-4″-pyrrolidin-1-yl[1,1′;3′,1″]-terphenyl-4-carboxylic acid]
